Earlier results as cited in PMC9329312, “Decoding kinase-adverse event associations for small molecule kinase inhibitors” (Nature Communications, 2022).

Conditions: ref FAERS

CCOc1cc2ncc(C#N)c(Nc3ccc(OCc4ccccn4)c(Cl)c3)c2cc1NC(=O)/C=C/CN(C)C [neratinib]
Intra-abdominal fluid collection, % of Cases: 0.15%
Intracranial artery dissection, % of Cases: 0.075%
Irritability, % of Cases: 0.15%
Ischaemic stroke, % of Cases: 0.075%
Joint injury, % of Cases: 0.075%
Joint stiffness, % of Cases: 0.15%
Joint swelling, % of Cases: 0.225%
Kidney infection, % of Cases: 0.075%
Klebsiella infection, % of Cases: 0.075%
Labelled drug-drug interaction medication error, % of Cases: 0.15%
Laboratory test abnormal, % of Cases: 0.15%
Large intestinal haemorrhage, % of Cases: 0.075%
Large intestinal obstruction, % of Cases: 0.075%
Lethargy, % of Cases: 0.45%
Ligament sprain, % of Cases: 0.15%
Lip swelling, % of Cases: 0.3%
Liver disorder, % of Cases: 0.15%
Liver function test increased, % of Cases: 0.45%
Liver injury, % of Cases: 0.225%
Localised infection, % of Cases: 0.075%
Loss of consciousness, % of Cases: 0.3%
Lower limb fracture, % of Cases: 0.075%
Lower respiratory tract infection, % of Cases: 0.075%
Lung cancer metastatic, % of Cases: 0.075%
Lung disorder, % of Cases: 0.15%
Lung neoplasm malignant, % of Cases: 0.375%
Lymph node haemorrhage, % of Cases: 0.075%
Lymphocyte count decreased, % of Cases: 0.075%
Lymphoedema, % of Cases: 0.15%
Magnetic resonance imaging abnormal, % of Cases: 0.075%
Magnetic resonance imaging head abnormal, % of Cases: 0.075%
Malaise, % of Cases: 1.5%
Malignant ascites, % of Cases: 0.075%
Malignant neoplasm of unknown primary site, % of Cases: 0.075%
Malignant neoplasm progression, % of Cases: 0.45%
Malignant pleural effusion, % of Cases: 0.075%
Malnutrition, % of Cases: 0.15%
Mass, % of Cases: 0.15%
Mastectomy, % of Cases: 0.225%
Medical procedure, % of Cases: 0.075%
Memory impairment, % of Cases: 0.45%
Menopausal symptoms, % of Cases: 0.075%
Menstruation delayed, % of Cases: 0.075%
Mental impairment, % of Cases: 0.075%
Mesenteric artery stenosis, % of Cases: 0.075%
Metastases to abdominal cavity, % of Cases: 0.075%
Metastases to bone, % of Cases: 0.375%
Metastases to central nervous system, % of Cases: 1.6%
Metastases to liver, % of Cases: 0.3%
Metastases to lung, % of Cases: 0.3%
Metastases to lymph nodes, % of Cases: 0.075%
Metastases to meninges, % of Cases: 0.075%
Metastases to peritoneum, % of Cases: 0.075%
Metastases to spine, % of Cases: 0.075%
Metastatic neoplasm, % of Cases: 0.15%
Microcytic anaemia, % of Cases: 0.075%
Micturition urgency, % of Cases: 0.075%
Middle ear effusion, % of Cases: 0.075%
Migraine, % of Cases: 0.375%
Monocyte count increased, % of Cases: 0.075%
Monoplegia, % of Cases: 0.075%
Mood swings, % of Cases: 0.075%
Mouth haemorrhage, % of Cases: 0.075%
Mouth swelling, % of Cases: 0.075%
Mouth ulceration, % of Cases: 0.15%
Movement disorder, % of Cases: 0.075%
Muscle spasms, % of Cases: 4.2%
Muscle twitching, % of Cases: 0.15%
Muscular weakness, % of Cases: 0.375%
Musculoskeletal chest pain, % of Cases: 0.15%
Musculoskeletal stiffness, % of Cases: 0.3%
Myalgia, % of Cases: 0.9%
Myelosuppression, % of Cases: 0.075%
Myocardial infarction, % of Cases: 0.075%
Myopia, % of Cases: 0.075%
Nail discolouration, % of Cases: 0.225%
Nail disorder, % of Cases: 0.375%
Nail growth abnormal, % of Cases: 0.075%
Nasal congestion, % of Cases: 0.45%
Nasal dryness, % of Cases: 0.3%
Nasal ulcer, % of Cases: 0.075%
Nasopharyngitis, % of Cases: 1.4%
Nausea, % of Cases: 29.7%
Neck pain, % of Cases: 0.15%
Negative thoughts, % of Cases: 0.15%
Neoplasm malignant, % of Cases: 0.075%
Neoplasm progression, % of Cases: 0.45%
Nephrolithiasis, % of Cases: 0.15%
Nervous system disorder, % of Cases: 0.15%
Nervousness, % of Cases: 0.075%
Neuralgia, % of Cases: 0.075%
Neuropathy peripheral, % of Cases: 1.1%
Neutropenia, % of Cases: 0.375%
Neutrophil count increased, % of Cases: 0.075%
Night sweats, % of Cases: 0.15%
Nightmare, % of Cases: 0.075%
Ocular hyperaemia, % of Cases: 0.15%
Oedema peripheral, % of Cases: 0.075%
Oesophageal pain, % of Cases: 0.075%
Off label use, % of Cases: 11.6%
Onychalgia, % of Cases: 0.075%
Onychoclasis, % of Cases: 0.8%
Onycholysis, % of Cases: 0.15%
Onychomycosis, % of Cases: 0.075%
Oral discomfort, % of Cases: 0.3%
Oral herpes, % of Cases: 0.075%
Oral mucosal blistering, % of Cases: 0.225%
Oral pain, % of Cases: 0.3%
Oropharyngeal pain, % of Cases: 1.1%
Orthostatic hypotension, % of Cases: 0.075%
Osteoarthritis, % of Cases: 0.15%
Osteonecrosis of jaw, % of Cases: 0.075%
Oxygen saturation decreased, % of Cases: 0.075%
Oxygen saturation increased, % of Cases: 0.075%
PIK3CA-activated mutation, % of Cases: 0.075%
Pain in extremity, % of Cases: 0.9%
Pain, % of Cases: 1.4%
Palmar-plantar erythrodysaesthesia syndrome, % of Cases: 0.3%
Palpitations, % of Cases: 0.15%
Pancreatic carcinoma, % of Cases: 0.075%
Pancreatic mass, % of Cases: 0.075%
Pancreatitis acute, % of Cases: 0.225%
Pancreatitis, % of Cases: 0.5%
Panic attack, % of Cases: 0.075%
Papilloedema, % of Cases: 0.075%
Papule, % of Cases: 0.075%
Paraesthesia oral, % of Cases: 0.075%
Paraesthesia, % of Cases: 0.45%
Paranasal sinus hypersecretion, % of Cases: 0.075%
Paranasal sinus hyposecretion, % of Cases: 0.075%
Paronychia, % of Cases: 0.15%
Pericardial effusion, % of Cases: 0.075%
Periorbital swelling, % of Cases: 0.075%
Peripheral swelling, % of Cases: 0.75%
Pharyngitis, % of Cases: 0.075%
Photopsia, % of Cases: 0.075%
Photosensitivity reaction, % of Cases: 0.075%
Physical deconditioning, % of Cases: 0.075%
Physical disability, % of Cases: 0.075%
Platelet count decreased, % of Cases: 0.225%
Platelet count increased, % of Cases: 0.075%
Pleural effusion, % of Cases: 0.225%
Pneumonia, % of Cases: 1.1%
Pneumonitis, % of Cases: 0.075%
Pollakiuria, % of Cases: 0.375%
Poor quality sleep, % of Cases: 0.075%
Post procedural bile leak, % of Cases: 0.075%
Post procedural infection, % of Cases: 0.075%
Post procedural swelling, % of Cases: 0.075%
Postoperative wound infection, % of Cases: 0.15%
Prescribed overdose, % of Cases: 0.075%
Prescribed underdose, % of Cases: 1.3%
Presyncope, % of Cases: 0.075%
Procedural pain, % of Cases: 0.075%
Proctalgia, % of Cases: 0.075%
Product administered to patient of inappropriate age, % of Cases: 0.075%
Product administration error, % of Cases: 0.9%
Product dose omission in error, % of Cases: 0.075%
Product dose omission issue, % of Cases: 7.8%
Product identification number issue, % of Cases: 0.075%
Product name confusion, % of Cases: 0.075%
Product packaging quantity issue, % of Cases: 0.075%
Product physical issue, % of Cases: 0.15%
Product prescribing error, % of Cases: 0.075%
Product use in unapproved indication, % of Cases: 0.15%
Product use issue, % of Cases: 0.15%
Productive cough, % of Cases: 0.225%
Prosthesis implantation, % of Cases: 0.075%
Pruritus, % of Cases: 1.2%
Pulmonary embolism, % of Cases: 0.075%
Pulmonary hypertension, % of Cases: 0.075%
Pulmonary oedema, % of Cases: 0.15%
Pulmonary pain, % of Cases: 0.075%
